Common to all, as to assay type: physicochemical
Data set [1] is described as follows: β-sheet content by ATR-FT-IR. The conditions noted are these: for b -sheet / %: Fig. S7 panel A, β-sheet content by ATR-FT-IR. The gist of the method:
(§1)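 1 mg/mL PNF solutions lyophilized and powders measured by diamond ATR FT-IR (2 cm^-1 resolution, 64 scans); β-sheet content calculated per a prior method. For CR, PNF solution centrifuged through 3 kDa MWCO filter (16200 x g, 4 °C, 45 min); filtrate and unfiltered sample lyophilized, dissolved in DMSO, reacted with fluorescamine.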

The nature of data set [2]: Conversion rate (CR) assay with fluorescamine. The conditions noted are these: for CR / %: Fig. S7 panel B; for CR / % / CR: conversion rate. The arrangement: key to CR: % = 100−100×filtrate/original fluorescence intensity. Summed up:
as §1

A short description of data set [3]: Aggregate analysis by widefield fluorescence microscopy. The conditions noted are these: for Number of Aggregates / Aggregate Number: ThT-stained aggregates > 10 µm2 in 1330 µm × 1330 µm, 1 mg/mL 1 d, diluted to 0.1 mg/mL with 50 µM ThT, 3D object counter ImageJ, triplicate. How it is done: 4 µL of 1 mg/mL peptide fibrils solution is added to a 20 µL, 50 µM ThT–solution in PBS. The mixture is incubated for 15 min at RT to allow binding of ThT dye with β–sheet rich structures. For reference PBS (4 µL) was added instead of peptide fibril solution. The samples were placed in black UV Star® 384 microliter well–plates (Greiner bio–one). Fluorescence spectra were recorded on an Infinite® M1000 PRO microplate reader (Tecan) at λem = 488 nm upon excitation at λex = 440 nm with 10 nm bandwidths and multiple reads per well (3×3). Measurements were repeated in triplicates and averaged with standard deviation. A peptide fibril was considered as ThT-active if the fluorescence intensity was at least twice as strong compared to the control (PBS containing 10% DMSO). Zeta-Potential. For the determination of the surface charge of aggregated peptides zeta-potential measurements were conducted with a Zetasizer Nano ZS, Malvern Instruments. Unless stated otherwise the peptides were dissolved from DMSO (10 mg/mL) in PBS (pH 7.4) to concentration of 1 mg/mL and incubated for 1d at RT. Just before the measurement the 60 µL of the peptides were further diluted in 600 µL KCl (aq, 1 mM) in a 1 mL disposable folded capillary cells (DTS–1060, Zetasizer Nano series, Malvern). The zeta potential of the peptides was derived from the electrophoretic mobility based on the Smoluchowski formula. All measurements were averaged over two individually performed experiments and conducted in triplicates for each sample. Aggregate analysis. […] Furthermore, fluorescence microscopy was conducted by staining 1 µL preformed fibrils (1 mg/mL) with 9 µL ThT (50 µM). Brightfield microscopy was performed simultaneously to evaluate aggregation also for non ThT-active fibrils. The measurements were performed on a Leica DMi8 microscope with 10x air objective and equipped with a Leica MC170 HD camera with a filter setting λem = 527/30 nm upon excitation at λex = 480/40 nm) and processed with the Leica LASX software. To quantify size and number of microscopic aggregation of particles > 10 µm^2 at least 3 independently measured images were analyzed via the 3D object counter analysis tool of ImageJ, v 1.53f51. Sum–frequency generation. The SFG experiments were carried out with a femtosecond Ti: Sapphire amplified laser system (Spitfire Ace, Spectra–Physics, 800 nm, 40 fs, 1 kHz) with 5 W output power. We used 2 W to pump an optical parametric amplifier (TOPAS, light conversion) with a non–collinear difference frequency generation stage to generate broadband IR pulses. Another 1 W of the laser output passed through an etalon to generate narrowband visible pulses (10 cm^-1). The incident angles of the visible and IR beams were 36° and 41° with respect to the surface normal, respectively. The visible (13 µJ) and IR (5 µJ) pulses were overlapped spatially and temporally at the sample position. Subsequently, the generated SFG pulse was guided into a spectrograph (Acton SP 300i, Princeton Instruments), and detected with an EMCCD (Newton, Andor Technology). To avoid IR absorption of water vapor, we purged N2 for the measurement. All spectra were collected in the ssp (denoting s-, s- and p-polarized SFG, visible and IR, respectively) polarization combination. The spectra were normalized to the non–resonant signal taken from z–cut quartz after subtracting a background spectrum.
Table S8 Summary of aggregate analysis from widefield microscopy measurements (Figure S32). The Number of aggregated peptides, the median size area, average size area
and the cumulative total size area of all particles (> 10 µm2) in an area of 1330 µm × 1330 µm was determined via automated 3D object counting (ImageJ) in triplicate
measurements (Std. Dev.).
Aggregate Std. Dev. Std. Dev. Std. Dev. Std. Dev.
Sequence Abs. Inf. / Std. Dev. / Count Rate / Std. Dev. Number Aggregate Median Area Median Area Average Area Average Area Total Area/ Total Area/ […]

This note sets out measurements from PMC10447463, “Data-mining unveils structure–property–activity correlation of viral infectivity enhancing self-assembling peptides” (Nature Communications, 2023).

Several values for one entry are separate records, joined by “and”; a condition that tells them apart may be missing. Equal entries are not always repeated. Where two headings read alike, the source gives them in different places.

CHLHLQL: the “b -sheet / %” value in data set [1] is recorded as 49.52%. Also, in data set [2] (fluorescamine assay), the CR / % was found to be 96.6% and the CR stood at 96.58. The “Number of Aggregates / Aggregate Number” value in data set [3] turned out to be 36.
With CKFKFQF, the “b -sheet / %” value in data set [1] turned out to be 47.43%. In data set [2] (fluorescamine assay), the CR / % turned out to be 95.6% and the CR came out at 95.56. Moreover, in data set [3], the “Number of Aggregates / Aggregate Number” value amounted to 128. The “Log10 Number Aggregates” value in data set [3] (logarithm of averaged number of aggregates in 1330 µm × 1330 µm) amounted to 2.108.
For the substance CKFKFQFNM, the “b -sheet / %” value in data set [1] was found to be 41%. Also, in data set [2] (fluorescamine assay), the CR / % is listed as 93.5% and the CR is on record as 93.52. The “Number of Aggregates / Aggregate Number” value in data set [3] was found to be 170.
As for HIHIQIC, in data set [1], the “b -sheet / %” value is listed as 48.25%. In data set [2] (fluorescamine assay), this substance had a CR / % of 82.7% and a CR of 82.72. The “Number of Aggregates / Aggregate Number” value in data set [3] is 33.
Take KFKFQFNMWQ: in data set [1], the “b -sheet / %” value is recorded as 43.15%. In data set [2] (fluorescamine assay), this substance gave a CR / % of 96.2% and a CR of 96.16. Moreover, in data set [3], the “Number of Aggregates / Aggregate Number” value was 64.
Taken in the same sequence, the figures for KIKQIINMWQ were 40.68%, 90.1%, 90.09 and 39.
The corresponding values for QCKIKIQINMWQ are 36.23%, 93.7%, 93.68 and 398.
In the case of QCKIKQIINMWQ [reference compound], in data set [1], the “FTIR ß-sheet content/ %” value stood at 39.05% and the “b -sheet / %” value came out at 51.73%. In data set [1] (ATR-FT-IR, listed as EF-C), the “FTIR ß-sheet content/ %” value was 39% and 39.05%. In addition, the “Conversion Rate / %” value in data set [2] amounted to 76.98%. Moreover, in data set [2] (fluorescamine assay), the CR / % is 77%, the CR turned out to be 76.98 and the “Conversion Rate / %” value amounted to 76.98%. In data set [3] (Fig S8 panels A, C), the “Avg Area in 3 *(1330 µm *1330 µm)” value was 71.85, the “Log 10 Number of aggregates in 3 * (1330 µm *1330 µm)” value was found to be 2.611, the “Median Area in 3 * (1330 µm *1330 µm)” value is reported as 27.89 and the “log Avg Area in 3 * ( (1330 µm *1330 µm))” value is 1.856. Moreover, in data set [3] (Fig S8 panels A, C), the “log Median Area in 3 * ( (1330 µm *1330 µm))” value amounted to 1.445 and the “log Total Area of all particles in 3 * (1330 µm *1330 µm)” value is 4.467. The “Number of aggregates in 3 * (1330 µm *1330 µm)” value in data set [3] (Fig S8 panels A, C, 3 fields of 1330 µm x 1330 µm) turned out to be 408. Moreover, in data set [3] (Fig S8 panels B, D, average aggregate area, 3 fields of 1330 µm x 1330 µm), the “Avg Area in 3 *(1330 µm *1330 µm)” value is given as 71.85. For the same substance, in data set [3] (Fig S8 panels B, D, median aggregate area, 3 fields of 1330 µm x 1330 µm), the “Median Area in 3 * (1330 µm *1330 µm)” value amounted to 27.89. In addition, the “Total Area of all particles in 3 * (1330 µm *1330 µm)” value in data set [3] (Fig S8 panels B, D, total area of all particles, 3 fields of 1330 µm x 1330 µm) worked out at 29314.25467. Also, the “Number of aggregates in 3 * (1330 µm *1330 µm)” value in data set [3] (Fig S8 panels B, D, widefield fluorescence microscopy, 3 fields of 1330 µm x 1330 µm) stood at 408. Besides, in data set [3], the “Number of Aggregates / Aggregate Number” value is 408.
For SISISRRI, the “b -sheet / %” value in data set [1] is 48.78%. In data set [2] (fluorescamine assay), this substance displayed a CR / % of 24.2% and a CR of 24.22.
